Values after ≈ are worked out from the molar mass of the structure shown. Like-named read-outs stand apart in the source and are kept apart here. Marks after values point to notes of the source that are not given here.
Legend:
Mtb H37Rv [1] = experiment: microbe, parasite or virus in culture; type: cell-based, Mycobacterium tuberculosis; settings: for MIC50: Mycobacterium tuberculosis, H37RV
Mtb H37Rv [2] = system: Mtb H37Rv; parameters: species or system BALB/c mice; settings: mouse, in vivo
in vitro replicating Mtb = type: cell-based, Mycobacterium tuberculosis
Mtb H37Rv [3] = settings: cited from earlier work
mycolates = type: cell-based, Mycobacterium tuberculosis
InhA [4] = target: T1, InhA (Mycobacterium tuberculosis, UniProt P9WGR1); experiment: biochemical
InhA-NADH complex = InhA-NADH complex (Mycobacterium tuberculosis, UniProt P9WGR1); experiment: biochemical; type: binding
[5] = target: apo-InhA, InhA-NAD+ complex (Mycobacterium tuberculosis, UniProt P9WGR1); type: binding
[6] = target: InhA with cofactor (NADH or NAD+) (Mycobacterium tuberculosis, UniProt P9WGR1); type: binding
InhA [7] = target: T1, InhA; settings: read-out: InhA IC50; cited from earlier work

Sequence of InhA with cofactor (NADH or NAD+) (P9WGR1 whole entry, looked up): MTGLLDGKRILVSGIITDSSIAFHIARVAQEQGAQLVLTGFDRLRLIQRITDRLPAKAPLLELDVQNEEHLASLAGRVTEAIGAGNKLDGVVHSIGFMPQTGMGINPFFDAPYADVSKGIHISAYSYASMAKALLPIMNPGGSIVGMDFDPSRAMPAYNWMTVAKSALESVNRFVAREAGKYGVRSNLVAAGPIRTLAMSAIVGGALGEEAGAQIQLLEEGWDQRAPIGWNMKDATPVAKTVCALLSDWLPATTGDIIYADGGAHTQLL
Sequence of InhA-NADH complex (P9WGR1 whole entry, looked up, one chain of several): as the sequence (P9WGR1 whole entry, looked up) above
T1 sequence (P9WGR1 whole entry, looked up): as above
Sequence of apo-InhA, InhA-NAD+ complex (P9WGR1 whole entry, looked up, one chain of several): as the sequence (P9WGR1 whole entry, looked up) above

In the case of NNC(=O)c1ccncc1 [isoniazid], the MIC50 (Mtb H37Rv [1]; read-out: Compound MIC50) is reported as 0.25 µM (≈ 0.0343 µg/mL), the “efficacy compared with reference drugs / NITD-916” value (Mtb H37Rv [2]) is reported as “significantly more potent than NITD-916” and the “concentration showing rapid killing (in vitro cidal-activity profile)” value (in vitro replicating Mtb) is reported as 0.5 µM. For the same compound, the MIC50 (Mtb H37Rv [3]) was 0.33 µM (≈ 0.0453 µg/mL).
In the case of COc1nc2ccc(Br)cc2cc1[C@@H](c1ccccc1)[C@@](O)(CCN(C)C)c1cccc2ccccc12 [bedaquiline], the MIC50 (Mtb H37Rv [3]) is listed as 0.05 µM (≈ 0.0278 µg/mL).
For O=[N+]([O-])c1cn2c(n1)OC[C@@H](OCc1ccc(OC(F)(F)F)cc1)C2 [PA-824], the MIC50 (Mtb H37Rv [3]) is given as 0.4 µM (≈ 0.144 µg/mL).
In the case of [H]/N=C(/N)N[C@H]1[C@H](O)[C@@H](O)[C@H](O[C@@H]2O[C@@H](C)[C@](O)(C=O)[C@H]2O[C@@H]2O[C@@H](CO)[C@H](O)[C@@H](O)[C@@H]2NC)[C@@H](N/C(N)=N\[H])[C@@H]1O [streptomycin], the MIC50 (Mtb H37Rv [1]; read-out: Compound MIC50) is reported as 0.08 µM (≈ 0.0465 µg/mL).
In the case of CO[C@H]1/C=C/O[C@@]2(C)Oc3c(C)c(O)c4c(O)c(c(/C=N/N5CCN(C)CC5)c(O)c4c3C2=O)NC(=O)/C(C)=C\C=C\[C@H](C)[C@H](O)[C@@H](C)[C@@H](O)[C@@H](C)[C@H](OC(C)=O)[C@@H]1C [rifampicin], the “efficacy compared with reference drugs / NITD-916” value (Mtb H37Rv [2]) is reported as “significantly more potent than NITD-916”.
With CC(C)Cc1cc(O)c(-c2ccccc2)c(=O)[nH]1 [NITD-529, 4-hydroxy-6-isobutyl-3-phenylpyridin-2(1H)-one] the “Mtb MIC50” value (Mtb H37Rv [1]) was 1.54 µM, the MIC50 (Mtb H37Rv [1]; 120 h, read-out: Mtb MIC50) was 1.5 µM (≈ 0.365 µg/mL) and the MIC50 (Mtb H37Rv [1]; read-out: Compound MIC50) was 1.54 µM (≈ 0.375 µg/mL). For the same compound, the effect on mycolates (mycolates) was “dose-dependent inhibition of mycolates”, the IC50 (InhA [4]) was 9.6 ± 0.7 µM and the “ITC (+NADH) N” value (InhA-NADH complex) was 0.97 ± 0.23. For the same compound, the Kd (InhA-NADH complex) was 25 ± 7 µM, the “ITC (+NADH) ΔH” value (InhA-NADH complex; 25°C) was 13.1 ± 4.202 kcal/mol and the “ITC (+NADH) ΔS” value (InhA-NADH complex; 25°C) was -0.0229 kcal/mol. For the same compound, the “ITC binding to InhA” value [5] was “no binding was observed”, the “Thermaflor assay Tm, E-NAD+-I” value [6] was 50.3 °C and the “Thermaflor assay Tm, E-NADH-I” value [6] was 54.7 °C. For the same compound, the “Thermaflor assay ΔTm” value [6] was 4.4 °C.
For c1ccc(Oc2ccccc2)cc1 [PT70], the IC50 (InhA [7]) is given as under 0.05 µM, the “Thermaflor assay Tm, E-NAD+-I” value [6] is given as 66.7 °C and the “Thermaflor assay Tm, E-NADH-I” value [6] is given as 60.1 °C. The “Thermaflor assay ΔTm” value [6] was -6.6 °C and the “Mtb MIC50” value (Mtb H37Rv [3]) was 11 ^a μM.
CCc1cc(C(N)=S)ccn1 [ethionamide] showed an MIC50 (Mtb H37Rv [1]; read-out: Compound MIC50) of 1.66 µM (≈ 0.276 µg/mL).

Source: publication PMC4383039 (Science translational medicine, 2015)
